We go through 3 compounds from PMC10118748 (Science translational medicine, 2022).

For series [1] the following is noted: ref [58]; cited from earlier work.
The test system of the next series is cynomolgus PD-L1. To be noted: flow staining of SDGF-PDL1B1G1-expressing cells.
The conditions of series [2]: 10 mM DTT vs PBS.
For series [3], the system named is PC3 tumors. The settings on record: cohort 2, ATC + durvalumab, 1 or 0.1 nmol/dose.
Series [4] has as its system PC3 tumors. The settings on record: 14 days after treatment, 1 nmol + ATC (fig. S10).
A further series has as its system murine PD-L1. To be noted: ref [47]; cited from earlier work.

Consider atezolizumab, for which, in series [1], the linked adverse effect entry was “Type 1 diabetes has been reported”.

In the case of `CC[C@H](C)[C@@H]1NC(=O)[C@H](CCCNC(=N)N)NC(=O)[C@H](CCC(=O)O)NC(=O)[C@H](C)NC(=O)[C@@H]2CSSC[C@H](NC(=O)[C@H](Cc3c[nH]cn3)NC(=O)[C@H](C)NC(=O)[C@H](CCCNC(=N)N)NC(=O)CNC(=O)[C@H]([C@@H](C)CC)NC(=O)[C@H]([C@@H](C)O)NC(=O)[C@H](Cc3ccc(O)cc3)NC(=O)[C@H](CO)NC(=O)[C@H](CCCCN)NC1=O)C(=O)N[C@@H](CO)C(=O)NCC(=O)N[C@@H](CCC(N)=O)C(=O)N[C@@H](Cc1ccc(O)cc1)C(=O)N[C@@H](Cc1ccccc1)C(=O)N[C@@H](CC(=O)O)C(=O)N[C@@H](C(C)C)C(=O)N[C@@H](Cc1c[nH]c3ccccc13)C(=O)N[C@@H](CCCCN)C(=O)N[C@H]1CSSC[C@H](NC(=O)[C@H](Cc3c[nH]cn3)NC(=O)[C@H](C(C)C)NC(=O)[C@H](CCCCN)NC(=O)[C@@H](NC(=O)[C@H](CC(=O)O)NC(=O)[C@H](CCC(=O)O)NC(=O)[C@H](CCC(=O)O)NC(=O)[C@H](CO)NC(=O)CN)CSSC[C@@H](C(=O)N[C@@H](C)C(=O)N[C@@H](C)C(=O)N3CCC[C@H]3C(=O)O)NC(=O)[C@H](Cc3c[nH]cn3)NC(=O)[C@H](CC(=O)O)NC(=O)[C@H](CC(C)C)NC1=O)C(=O)N[C@@H](C(C)C)C(=O)N[C@@H](CCCCN)C(=O)N[C@@H](CCC(=O)O)C(=O)N[C@@H](Cc1c[nH]c3ccccc13)C(=O)N[C@@H](C)C(=O)N[C@@H](C)C(=O)N[C@@H](Cc1ccc(O)cc1)C(=O)N[C@@H](CCCCN)C(=O)N[C@@H](C)C(=O)N2` [PDL1B1G1], the “binding to cynomolgus PD-L1 relative to murine PD-L1” value in the series with cynomolgus PD-L1 was “stronger than seen with murine PD-L1”. For the same compound, the “RP-HPLC mobility shift upon reduction” value in series [2] is “substantial mobility shift”.

durvalumab: the tumor growth suppression entry in the series on PC3 tumors [3] is listed as “No tumor growth suppression”. Moreover, the “ATC infiltration and activation in tumor (human CD8, granzyme B)” value with PC3 tumors [4] was “recruitment of trace numbers of ATCs infiltrating the tumor”. Also, the murine cross-reactivity entry with murine PD-L1 is given as “non-murine-cross-reactive”.
